Experimental data from PubChem BioAssay (NCI).
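A five-concentration, 48-hour dose response in 96-well plates underlies each endpoint, interpolated linearly between surrounding concentrations. TGI is the concentration that stops growth completely.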

Columns and labels:
Assay in all cases: NCI anticancer screen, dose series, 48 h
XF 498 CNS = system: XF 498 CNS
HT29 colon = system: HT29 colon
COLO 205 colon = system: COLO 205 colon
EKVX NSCLC = system: EKVX NSCLC
KM20L2 colon = system: KM20L2 colon
CAKI-1 renal = system: CAKI-1 renal
RPMI-8226 leukemia = system: RPMI-8226 leukemia
DLD-1 colon = system: DLD-1 colon
DMS 273 small cell lung = system: DMS 273 small cell lung
HCT-116 colon = system: HCT-116 colon
OVCAR-8 ovarian = system: OVCAR-8 ovarian
SK-MEL-28 melanoma = system: SK-MEL-28 melanoma
ACHN renal = system: ACHN renal
NCI-H226 lung = system: NCI-H226 lung
KM12 colon = system: KM12 colon
UACC-257 melanoma = system: UACC-257 melanoma
UACC-62 melanoma = system: UACC-62 melanoma
A498 renal = system: A498 renal
SR leukemia = system: SR leukemia
SW-620 colon = system: SW-620 colon
M19-MEL melanoma = system: M19-MEL melanoma
MALME-3M melanoma = system: MALME-3M melanoma
UO-31 renal = system: UO-31 renal
SNB-78 CNS = system: SNB-78 CNS
A549 NSCLC = system: A549 NSCLC
NCI-H23 lung = system: NCI-H23 lung
IGROV1 ovarian = system: IGROV1 ovarian
HL-60(TB) leukemia = system: HL-60(TB) leukemia
SK-MEL-5 melanoma = system: SK-MEL-5 melanoma
SN12C renal = system: SN12C renal
TK-10 renal = system: TK-10 renal
NCI-H522 lung = system: NCI-H522 lung
HCT-15 colon = system: HCT-15 colon
SF-268 CNS = system: SF-268 CNS
SK-OV-3 ovarian = system: SK-OV-3 ovarian
SF-295 CNS = system: SF-295 CNS
M14 melanoma = system: M14 melanoma
NCI-H460 lung = system: NCI-H460 lung
786-0 renal = system: 786-0 renal
HCC-2998 colon = system: HCC-2998 colon
LXFL 529 NSCLC = system: LXFL 529 NSCLC
K-562 leukemia = system: K-562 leukemia
U251 CNS = system: U251 CNS
SF-539 CNS = system: SF-539 CNS
SNB-19 CNS = system: SNB-19 CNS
LOX IMVI melanoma = system: LOX IMVI melanoma
OVCAR-4 ovarian = system: OVCAR-4 ovarian
OVCAR-3 ovarian = system: OVCAR-3 ovarian
SNB-75 CNS = system: SNB-75 CNS
HOP-62 NSCLC = system: HOP-62 NSCLC
RXF 393 renal = system: RXF 393 renal
CCRF-CEM leukemia = system: CCRF-CEM leukemia
DMS 114 small cell lung = system: DMS 114 small cell lung
OVCAR-5 ovarian = system: OVCAR-5 ovarian
HOP-92 NSCLC = system: HOP-92 NSCLC
SK-MEL-2 melanoma = system: SK-MEL-2 melanoma
MOLT-4 leukemia = system: MOLT-4 leukemia

`CCOC(=O)C1N(S(=O)(=O)c2ccc(C)cc2)CCC12c1ccccc1NC2c1ccc(OC)c(OC)c1` (configuration not stated) was tested. Which TGI (XF 498 CNS) did it give?
Its TGI is greater than 100 µM.

And the TGI (HT29 colon)?
The TGI was greater than 100 µM.

And the TGI (COLO 205 colon)?
Its TGI is greater than 100 µM.

And the TGI (EKVX NSCLC)?
The TGI was greater than 100 µM.

What about the TGI (KM20L2 colon) of the same compound?
The TGI was greater than 100 µM.

And the TGI (CAKI-1 renal)?
Its TGI is greater than 100 µM.

What about the TGI (RPMI-8226 leukemia) of the same compound?
Its TGI is greater than 100 µM.

What about the TGI (DLD-1 colon) of the same compound?
The TGI was greater than 100 µM.

And the TGI (DMS 273 small cell lung)?
Its TGI is greater than 100 µM.

What about the TGI (HCT-116 colon) of the same compound?
Its TGI is greater than 100 µM.

And the TGI (OVCAR-8 ovarian)?
Its TGI is greater than 100 µM.

And the TGI (SK-MEL-28 melanoma)?
The TGI was greater than 100 µM.

And the TGI (ACHN renal)?
Its TGI is greater than 100 µM.

And the TGI (NCI-H226 lung)?
Its TGI is greater than 100 µM.

What about the TGI (KM12 colon) of the same compound?
The TGI was greater than 100 µM.

And the TGI (UACC-257 melanoma)?
Its TGI is greater than 100 µM.

And the TGI (UACC-62 melanoma)?
Its TGI is greater than 100 µM.

What about the TGI (A498 renal) of the same compound?
Its TGI is greater than 100 µM.

What about the TGI (SR leukemia) of the same compound?
The TGI was greater than 100 µM.

What about the TGI (SW-620 colon) of the same compound?
The TGI was greater than 100 µM.

What about the TGI (M19-MEL melanoma) of the same compound?
Its TGI is greater than 100 µM.

And the TGI (MALME-3M melanoma)?
The TGI was greater than 100 µM.

What about the TGI (UO-31 renal) of the same compound?
The TGI was greater than 100 µM.

And the TGI (SNB-78 CNS)?
Its TGI is greater than 100 µM.

What about the TGI (A549 NSCLC) of the same compound?
Its TGI is greater than 100 µM.

What about the TGI (NCI-H23 lung) of the same compound?
Its TGI is greater than 100 µM.

And the TGI (IGROV1 ovarian)?
Its TGI is 34 µM.

And the TGI (HL-60(TB) leukemia)?
Its TGI is greater than 100 µM.

And the TGI (SK-MEL-5 melanoma)?
Its TGI is greater than 100 µM.

What about the TGI (SN12C renal) of the same compound?
Its TGI is greater than 100 µM.

And the TGI (TK-10 renal)?
Its TGI is greater than 100 µM.

And the TGI (NCI-H522 lung)?
The TGI was greater than 100 µM.

And the TGI (HCT-15 colon)?
Its TGI is greater than 100 µM.

What about the TGI (SF-268 CNS) of the same compound?
Its TGI is greater than 100 µM.

What about the TGI (SK-OV-3 ovarian) of the same compound?
Its TGI is greater than 100 µM.

And the TGI (SF-295 CNS)?
Its TGI is greater than 100 µM.

And the TGI (M14 melanoma)?
The TGI was greater than 100 µM.

What about the TGI (NCI-H460 lung) of the same compound?
The TGI was greater than 100 µM.

And the TGI (786-0 renal)?
The TGI was greater than 100 µM.

What about the TGI (HCC-2998 colon) of the same compound?
Its TGI is greater than 100 µM.

And the TGI (LXFL 529 NSCLC)?
The TGI was greater than 100 µM.

What about the TGI (K-562 leukemia) of the same compound?
The TGI was greater than 100 µM.

And the TGI (U251 CNS)?
Its TGI is greater than 100 µM.

What about the TGI (SF-539 CNS) of the same compound?
Its TGI is greater than 100 µM.

And the TGI (SNB-19 CNS)?
The TGI was greater than 100 µM.

And the TGI (LOX IMVI melanoma)?
Its TGI is greater than 100 µM.

And the TGI (OVCAR-4 ovarian)?
Its TGI is greater than 100 µM.

And the TGI (OVCAR-3 ovarian)?
Its TGI is greater than 100 µM.

What about the TGI (SNB-75 CNS) of the same compound?
The TGI was greater than 100 µM.

And the TGI (HOP-62 NSCLC)?
The TGI was greater than 100 µM.

And the TGI (RXF 393 renal)?
Its TGI is greater than 100 µM.

What about the TGI (CCRF-CEM leukemia) of the same compound?
Its TGI is greater than 100 µM.

What about the TGI (DMS 114 small cell lung) of the same compound?
The TGI was greater than 100 µM.

What about the TGI (OVCAR-5 ovarian) of the same compound?
Its TGI is greater than 100 µM.

What about the TGI (HOP-92 NSCLC) of the same compound?
The TGI was 24.4 µM.

How did the TGI (XF 498 CNS) turn out when `Oc1c(-c2ccccc2)nc2ccccn12` was run?
The TGI was greater than 100 µM.

And the TGI (HT29 colon)?
Its TGI is greater than 100 µM.

What about the TGI (EKVX NSCLC) of the same compound?
Its TGI is greater than 100 µM.

What about the TGI (KM20L2 colon) of the same compound?
The TGI was greater than 100 µM.

And the TGI (CAKI-1 renal)?
The TGI was greater than 100 µM.

What about the TGI (DLD-1 colon) of the same compound?
Its TGI is greater than 100 µM.

And the TGI (DMS 273 small cell lung)?
The TGI was greater than 100 µM.

What about the TGI (HCT-116 colon) of the same compound?
Its TGI is greater than 100 µM.

What about the TGI (OVCAR-8 ovarian) of the same compound?
The TGI was greater than 100 µM.

And the TGI (SK-MEL-28 melanoma)?
The TGI was greater than 100 µM.

And the TGI (ACHN renal)?
Its TGI is greater than 100 µM.

And the TGI (NCI-H226 lung)?
The TGI was greater than 100 µM.

And the TGI (KM12 colon)?
Its TGI is greater than 100 µM.

And the TGI (UACC-257 melanoma)?
Its TGI is greater than 100 µM.

What about the TGI (UACC-62 melanoma) of the same compound?
Its TGI is greater than 100 µM.

And the TGI (A498 renal)?
Its TGI is greater than 100 µM.

What about the TGI (SR leukemia) of the same compound?
The TGI was greater than 100 µM.

And the TGI (SW-620 colon)?
The TGI was greater than 100 µM.

And the TGI (M19-MEL melanoma)?
The TGI was greater than 100 µM.

What about the TGI (MALME-3M melanoma) of the same compound?
Its TGI is greater than 100 µM.

What about the TGI (UO-31 renal) of the same compound?
Its TGI is greater than 100 µM.

What about the TGI (SNB-78 CNS) of the same compound?
Its TGI is greater than 100 µM.

And the TGI (A549 NSCLC)?
Its TGI is greater than 100 µM.

What about the TGI (SK-MEL-2 melanoma) of the same compound?
Its TGI is greater than 100 µM.

And the TGI (NCI-H23 lung)?
The TGI was greater than 100 µM.

And the TGI (IGROV1 ovarian)?
The TGI was greater than 100 µM.

What about the TGI (HL-60(TB) leukemia) of the same compound?
Its TGI is greater than 100 µM.

What about the TGI (SK-MEL-5 melanoma) of the same compound?
Its TGI is greater than 100 µM.

What about the TGI (SN12C renal) of the same compound?
Its TGI is greater than 100 µM.

What about the TGI (TK-10 renal) of the same compound?
Its TGI is greater than 100 µM.

What about the TGI (NCI-H522 lung) of the same compound?
The TGI was greater than 100 µM.

What about the TGI (SF-268 CNS) of the same compound?
Its TGI is greater than 100 µM.

And the TGI (SK-OV-3 ovarian)?
Its TGI is greater than 100 µM.

What about the TGI (SF-295 CNS) of the same compound?
The TGI was greater than 100 µM.

And the TGI (M14 melanoma)?
Its TGI is greater than 100 µM.

And the TGI (NCI-H460 lung)?
Its TGI is greater than 100 µM.

And the TGI (786-0 renal)?
The TGI was greater than 100 µM.

What about the TGI (HCC-2998 colon) of the same compound?
The TGI was greater than 100 µM.

What about the TGI (LXFL 529 NSCLC) of the same compound?
The TGI was greater than 100 µM.

And the TGI (K-562 leukemia)?
Its TGI is greater than 100 µM.

And the TGI (U251 CNS)?
Its TGI is greater than 100 µM.

What about the TGI (SF-539 CNS) of the same compound?
The TGI was greater than 100 µM.

What about the TGI (MOLT-4 leukemia) of the same compound?
Its TGI is greater than 100 µM.

And the TGI (SNB-19 CNS)?
Its TGI is greater than 100 µM.

What about the TGI (OVCAR-4 ovarian) of the same compound?
The TGI was greater than 100 µM.

And the TGI (OVCAR-3 ovarian)?
Its TGI is greater than 100 µM.

What about the TGI (SNB-75 CNS) of the same compound?
Its TGI is greater than 100 µM.

What about the TGI (HOP-62 NSCLC) of the same compound?
Its TGI is greater than 100 µM.

What about the TGI (RXF 393 renal) of the same compound?
The TGI was greater than 100 µM.

And the TGI (CCRF-CEM leukemia)?
Its TGI is greater than 100 µM.

What about the TGI (DMS 114 small cell lung) of the same compound?
Its TGI is greater than 100 µM.

And the TGI (OVCAR-5 ovarian)?
Its TGI is greater than 100 µM.
